The text below walks through data of patent US20100087546A1, “USE OF DIMETHYL SULFONE (MSM) TO REDUCE HO[…]” (BIOGENIC INNOVATIONS, LLC, priority 2005, published 2010).

Assay type in all cases: in vivo, human
In data set [1] the test system is osteoarthritis pain of the knee. The experiment in a line: 12-week randomized, double-blind, placebo-controlled trial in osteoarthritis of the knee (WOMAC pain and physical function). As to conditions: 3 g twice a day (6 g/day) for 12 weeks, oral, OA of the knee, versus placebo. The source says:
(§1) In 2005, Applicant commissioned a study to determine the efficacy of dimethyl sulfone in the treatment of pain and physical function impairment due to osteoarthritis. The results of the study are published in Kim, et al, Efficacy of methylsulfonylmethane (MSM) in osteoarthritis pain of the knee: a pilot clinical trial. OsteoArthritis and Cartilage, herein incorporated by reference in its entirety. Patients were given dosage of 6 g of dimethyl sulfone (Distilled MSM microprill (OptiMSM®, Cardinal Nutrition, Vancouver, Wash.)) per day in a stepwise approach. In week 1, dosages started with 2 g/day in two divided doses for 3 days, and then increased to 4 g/day for 4 days. Week 2, increased to 6 g/day. In the control group, a placebo was administered that consisted of inert ingredients and that was indistinguishable in color, size and taste from the dimethyl sulfone.
In a study directed by Applicant or its related affiliate, and as reported in Kim et al (published in 2006), herein incorporated by reference in its entirety, the effects of dimethyl sulfone on OA of the knee were evaluated. Qualified patients (n=50) were as-signed to MSM (n=25) or placebo (n=25) in a 12-week randomized, double-blind, placebo-controlled trial using computer-generated random numbers (FIG. 1).
At week 1, subjects were administered 2 g/day in two divided doses for 3 days, and then increased to 4 g/day for 4 days. […]

In data set [2] the test system is homocysteine. The experiment in a line: Serum homocysteine measured at baseline and 12 weeks in the 2005 osteoarthritis study. Particulars: 6 g/day, baseline versus 12 weeks, FIG. 2.
Source text: as §1
(§2) During the 2005 osteoarthritis study, described above, dimethyl sulfone's potential activities were also evaluated. Serum homocysteine, high sensitive C-reactive protein (CRP), erythrocyte sedimentation rate (ESR), and urine malondialdehyde (MDA) were measured at baseline and 12 weeks.
Since dimethyl sulfone is a putative methyl donor, it was believed that dimethyl sulfone may act as a co-factor in reducing homocysteine levels. […]

Data set [3] relates to malondialdehyde (MDA). Kind of data set: Urine malondialdehyde (MDA) measured at baseline and 12 weeks in the 2005 osteoarthritis study. Particulars: 6 g/day, baseline versus 12 weeks.
Source text: as §1, §2
The combined decreases in homocysteine and urine MDA during the 2005 osteoarthritis study supports the role of dimethyl sulfone in metabolic processes requiring methylation, such as antioxidant capacities. […]

The nature of data set [4]: 2008 acute oral dosing study, pharmacokinetic blood draws (serum dimethyl sulfone levels). The method, then:
In a study directed by Applicant or its related affiliate in 2008, six participants received three doses of dimethyl sulfone at three acute test visits spaced one week apart. Subjects were monitored for four hours post dose, with pharmacokinetic (PK) and phamacodynamic blood draws at 0, 45, 90, 135, 180 and 240 minutes post dosing. Subjects also provided a 24-hour post-dose urine collection for assay of dimethyl sulfone and sulfate levels.
Rough estimates have been obtained for the half times of absorption (½ hour) and elimination (8 hours).

Setting [5] is: blood draws 0-240 minutes post dosing.
Where [6] appears, read: six participants, rough estimate.

“Also recorded” adds a separate entry of the source.

dimethyl sulfone: the “symptoms of pain and physical function (WOMAC subscales)” value in data set [1] is “produced improvement in two of the three WOMAC subscales, pain and physical function”. In addition, the “symptoms of pain and physical function (WOMAC subscales)” value in data set [1] (listed as dimethyl sulfone) is “improved symptoms of pain and physical function”. In data set [2], the serum homocysteine levels entry is given as “significantly decreased; also recorded: decreases”. For the same substance, the “urine MDA” value in data set [3] is “decreases”. In data set [4] (setting [5]), the “absorption from the upper gastrointestinal tract (serum level pattern)” value is listed as “fairly rapid absorption from the upper gastrointestinal tract (within an hour)” and the “elimination from the bloodstream (serum level pattern)” value is on record as “slower elimination from the bloodstream (over the course of one or two days)”. Also, in data set [4] (setting [6]), the “half time of absorption” value was “½” and the “half time of elimination” value was roughly 8 h.
